Laboratory results from patent publication US20110287045A1, “Enhanced immune response against infections” (priority 2010, published 2011).
Entries after “also recorded” stand apart in the source; their conditions may differ.

Legend:
integrin αVβ3 = integrin αVβ3 (Homo sapiens, UniProt P05106+P06756); conditions: read-out: dissociation constants (Kd), integrin αVβ3; cited from earlier work
[1] = test system: platelets from integrin β3 knockout mice; assay: Flow cytometry assay of platelet activation, platelets from integrin β3 knockout mice; assay type: cell-based, mouse; conditions: β3−/− gel-filtered platelets
Experimental: (§1) Gel-filtered human or mouse platelets were prepared from platelet-rich plasma obtained from blood collected in 0.38% sodium citrate via heart puncture. 1×10^7gel-filtered platelets were incubated under different stimulation conditions at 37° C. for 30 minutes. For in vitro platelet activation, Tat 20 ng/ml, CCL5 10 μg/ml, or control Ad18-66 20 ng/ml were used. To test the role of chemokine receptor CCR3, calcium flux and cAMP in Tat-induced platelet activation, CCR3 inhibitor SB328437 3 nM, calcium flux inhibitor EGTA 100 μM and prostaglandin E1 (PGE1, a cAMP elevator) 5 μM were used separately to treat platelets at 37° C. for 30 minutes before incubation with Tat, CCL5 or control as above. To test the role of β3 integrin, platelets from β3 integrin knock out mice were incubated with Tat, CCL5, thrombin, and control. Treated platelets were then stained with anti-CD154-FITC and anti-CD62P-PE antibody on ice for one hour. Fluorescent-labeled platelets were measured by flow cytometry (FACScan, Becton-Dickinson, Calif.).

platelets = assay: Inhibitor pre-treatment before agonist-induced platelet activation (flow cytometry); assay type: cell-based; conditions: for inhibition of CCL5-induced platelet activation / inhibition of Tat-induced platelet activation: pre-treatment 37° C. 30 minutes, SB328437 3 nM, EGTA 100 μM, PGE1 5 μM; for inhibition of CCL5-induced platelet activation: CCL5 10 μg/ml; for inhibition of Tat-induced platelet activation: Tat 20 ng/ml
Experimental: as §1

Chain of integrin αVβ3 (P06756 31-889 limits assumed): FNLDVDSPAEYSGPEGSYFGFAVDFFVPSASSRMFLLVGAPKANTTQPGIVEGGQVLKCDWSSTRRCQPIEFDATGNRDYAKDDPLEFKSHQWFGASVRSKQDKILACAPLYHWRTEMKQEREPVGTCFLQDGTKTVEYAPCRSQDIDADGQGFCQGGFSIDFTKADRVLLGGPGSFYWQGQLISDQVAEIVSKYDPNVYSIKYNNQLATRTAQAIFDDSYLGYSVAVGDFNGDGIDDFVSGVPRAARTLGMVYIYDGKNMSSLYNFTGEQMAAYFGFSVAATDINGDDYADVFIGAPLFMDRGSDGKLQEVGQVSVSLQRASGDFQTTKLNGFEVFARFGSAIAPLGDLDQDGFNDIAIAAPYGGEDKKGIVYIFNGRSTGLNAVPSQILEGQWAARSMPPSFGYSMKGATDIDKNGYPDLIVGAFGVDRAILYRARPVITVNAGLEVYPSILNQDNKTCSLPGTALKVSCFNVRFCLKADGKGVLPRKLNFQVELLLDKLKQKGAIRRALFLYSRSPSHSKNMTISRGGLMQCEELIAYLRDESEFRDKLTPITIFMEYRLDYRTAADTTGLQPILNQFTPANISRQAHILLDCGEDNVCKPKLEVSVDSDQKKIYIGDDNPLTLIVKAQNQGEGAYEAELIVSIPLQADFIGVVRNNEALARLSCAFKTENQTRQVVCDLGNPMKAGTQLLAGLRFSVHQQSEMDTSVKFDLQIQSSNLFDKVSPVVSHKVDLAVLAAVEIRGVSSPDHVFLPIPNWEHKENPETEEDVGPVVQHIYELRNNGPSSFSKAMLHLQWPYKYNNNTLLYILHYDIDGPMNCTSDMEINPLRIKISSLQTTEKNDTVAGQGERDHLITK
Chain of integrin αVβ3 (P06756 891-1048 partner limits assumed): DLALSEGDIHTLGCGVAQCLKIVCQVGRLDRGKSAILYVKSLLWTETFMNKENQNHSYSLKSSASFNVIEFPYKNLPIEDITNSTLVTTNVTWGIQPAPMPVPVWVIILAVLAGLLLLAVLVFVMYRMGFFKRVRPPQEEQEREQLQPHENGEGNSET
Chain of integrin αVβ3 (P05106 27-788): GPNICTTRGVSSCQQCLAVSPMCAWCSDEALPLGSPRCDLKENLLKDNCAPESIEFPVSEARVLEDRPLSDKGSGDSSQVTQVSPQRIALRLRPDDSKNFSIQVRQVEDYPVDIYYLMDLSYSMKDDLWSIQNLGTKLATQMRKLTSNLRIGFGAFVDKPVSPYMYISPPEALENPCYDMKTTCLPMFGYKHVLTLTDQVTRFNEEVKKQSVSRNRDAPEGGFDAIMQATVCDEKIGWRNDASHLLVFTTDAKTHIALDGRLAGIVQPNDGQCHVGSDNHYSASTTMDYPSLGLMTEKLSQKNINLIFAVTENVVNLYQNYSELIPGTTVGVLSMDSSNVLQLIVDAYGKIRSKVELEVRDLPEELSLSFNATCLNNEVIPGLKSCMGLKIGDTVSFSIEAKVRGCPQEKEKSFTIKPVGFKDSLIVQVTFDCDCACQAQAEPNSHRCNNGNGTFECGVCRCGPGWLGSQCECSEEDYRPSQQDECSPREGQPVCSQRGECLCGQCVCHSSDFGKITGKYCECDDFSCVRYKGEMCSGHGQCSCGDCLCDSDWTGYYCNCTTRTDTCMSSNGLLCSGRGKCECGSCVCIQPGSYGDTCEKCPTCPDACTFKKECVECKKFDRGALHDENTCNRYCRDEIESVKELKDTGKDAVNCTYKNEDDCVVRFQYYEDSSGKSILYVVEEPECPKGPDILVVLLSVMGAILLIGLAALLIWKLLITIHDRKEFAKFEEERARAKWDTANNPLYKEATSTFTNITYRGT

Compound | Kd (integrin αVβ3) [nM] | inhibition of CCL5-induced platelet activation (platelets) | inhibition of Tat-induced platelet activation (platelets) | also measured
fibrinogen | 27 |  |  | 
thrombin |  |  |  | platelet activation in integrin β3 deficient mouse platelets [1]: still induces platelet activation
vitronectin: integrin αVβ3 ligand, literature comparator | 64 |  |  | 
COC(=O)[C@H](Cc1ccc([N+](=O)[O-])cc1)NC(=O)c1cccc2ccccc12 [SB328437] |  | completely inhibited | completely inhibited | inhibition of thrombin-induced platelet activation (platelets; SB328437 pre-treatment, FIG. 9 in β3−/− platelets): did not inhibit; also recorded: do not inhibit
CCCCC[C@H](O)/C=C/[C@H]1[C@H](O)CC(=O)[C@@H]1CCCCCCC(=O)O [PGE1, prostaglandin E1] |  | partially inhibited | No significant inhibition | inhibition of CCL5-induced platelet activation (platelets; listed as prostaglandin E1 (PGE1)): partially blocks
O=C(O)CN(CCOCCOCCN(CC(=O)O)CC(=O)O)CC(=O)O [EGTA] |  | completely inhibited; also recorded: completely blocks | completely inhibited | 
